In ChEMBL document CHEMBL4840312, “Discovery of memantyl urea derivatives as potent soluble epoxide hydrolase inhibitors against lipopolysaccharide-induced sepsis” (Eur J Med Chem, 2021):
pIC50: −log10 of the molar value.

How the values were obtained:
[1] = biological target: T1, Bifunctional epoxide hydrolase 2 (Mus musculus, UniProt P34914)
T1 sequence (P34914 whole entry): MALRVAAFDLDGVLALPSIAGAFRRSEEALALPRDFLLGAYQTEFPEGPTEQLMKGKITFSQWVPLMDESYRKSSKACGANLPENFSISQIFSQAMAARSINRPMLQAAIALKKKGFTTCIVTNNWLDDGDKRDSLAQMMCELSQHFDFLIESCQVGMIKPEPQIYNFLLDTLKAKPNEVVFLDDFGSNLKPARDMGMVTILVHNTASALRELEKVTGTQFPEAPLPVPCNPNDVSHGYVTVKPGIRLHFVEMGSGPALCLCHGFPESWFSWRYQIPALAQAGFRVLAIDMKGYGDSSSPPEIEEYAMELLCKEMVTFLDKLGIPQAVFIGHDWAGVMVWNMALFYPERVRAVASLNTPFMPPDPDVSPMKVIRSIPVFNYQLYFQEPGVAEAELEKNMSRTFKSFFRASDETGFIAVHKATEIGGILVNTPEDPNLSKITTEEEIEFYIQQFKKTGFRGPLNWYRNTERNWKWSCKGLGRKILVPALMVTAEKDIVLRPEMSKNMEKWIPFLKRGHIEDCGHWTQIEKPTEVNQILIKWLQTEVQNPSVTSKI
Description: Inhibition of mouse recombinant sEH using PHOME as substrate measured after 10 mins by fluorescent based assay

[2] = biological target: T2, Bifunctional epoxide hydrolase 2 (Homo sapiens, UniProt P34913)
T2 sequence (P34913 whole entry): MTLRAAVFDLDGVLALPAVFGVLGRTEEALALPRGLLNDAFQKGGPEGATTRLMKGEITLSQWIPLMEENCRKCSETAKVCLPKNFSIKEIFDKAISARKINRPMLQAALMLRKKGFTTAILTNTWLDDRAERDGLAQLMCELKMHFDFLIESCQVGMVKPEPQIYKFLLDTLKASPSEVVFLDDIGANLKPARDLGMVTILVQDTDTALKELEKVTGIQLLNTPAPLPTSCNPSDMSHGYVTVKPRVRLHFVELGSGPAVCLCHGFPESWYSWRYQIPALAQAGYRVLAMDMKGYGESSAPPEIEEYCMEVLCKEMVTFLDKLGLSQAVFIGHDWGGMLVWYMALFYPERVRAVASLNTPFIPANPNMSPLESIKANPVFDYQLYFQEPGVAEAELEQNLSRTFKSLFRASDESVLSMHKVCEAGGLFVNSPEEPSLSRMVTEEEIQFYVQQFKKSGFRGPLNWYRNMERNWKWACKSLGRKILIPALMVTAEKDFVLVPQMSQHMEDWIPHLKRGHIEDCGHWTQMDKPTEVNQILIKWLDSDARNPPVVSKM
Description: Inhibition of human recombinant sEH using PHOME as substrate measured after 10 mins by fluorescent based assay

[3] = Reversible toxicity in ICR mouse assessed as eye secretion at 100 mg/kg, ip administered as single dose observed for 14 days; assay type: organism-based; conditions: in vivo, 336 h, time 14 day
[4] = Microsomal stability in human liver microsomes assessed as substrate remaining in presence of NADPH measured after 30 mins by LC-MS/MS analysis; conditions: 0.5 h
[5] = Microsomal stability in human liver microsomes assessed as substrate remaining in presence of NADPH measured after 5 mins by LC-MS/MS analysis
[6] = Volume of distribution in Sprague-Dawley rat at 3 mg/kg, iv administered as single dose upto 24 hrs by LC-MS analysis; assay type: ADME, organism-based; conditions: in vivo
[7] = Volume of distribution in Sprague-Dawley rat at 30 mg/kg, po administered as single dose upto 24 hrs by LC-MS analysis; assay type: ADME, organism-based; conditions: in vivo
[8] = AUC (0 to infinity) in Sprague-Dawley rat at 30 mg/kg, po administered as single dose upto 24 hrs by LC-MS analysis; assay type: ADME, organism-based; set-up: route oral, dose 30 mg/kg, time <=24; conditions: in vivo
[9] = Cmax in Sprague-Dawley rat at 30 mg/kg, po administered as single dose upto 24 hrs by LC-MS analysis; assay type: ADME, organism-based; set-up: route oral, dose 30 mg/kg, time <=24; conditions: in vivo
[10] = Cmax in Sprague-Dawley rat at 3 mg/kg, iv administered as single dose upto 24 hrs by LC-MS analysis; assay type: ADME, organism-based; set-up: route intravenous, dose 3 mg/kg, time <=24; conditions: in vivo
[11] = Clearance in Sprague-Dawley rat at 3 mg/kg, iv administered as single dose upto 24 hrs by LC-MS analysis; assay type: ADME, organism-based; conditions: in vivo
[12] = Microsomal stability in human liver microsomes assessed as substrate remaining in presence of NADPH measured after 60 mins by LC-MS/MS analysis; conditions: 1 h
[13] = AUC (0 to 24 hrs) in Sprague-Dawley rat at 3 mg/kg, iv administered as single dose upto 24 hrs by LC-MS analysis; assay type: ADME, organism-based; set-up: route intravenous, dose 3 mg/kg, time <=24; conditions: in vivo
[14] = Microsomal stability in human liver microsomes assessed as substrate remaining in presence of NADPH measured after 10 mins by LC-MS/MS analysis
[15] = AUC (0 to 24 hrs) in Sprague-Dawley rat at 30 mg/kg, po administered as single dose upto 24 hrs by LC-MS analysis; assay type: ADME, organism-based; set-up: route oral, dose 30 mg/kg, time <=24; conditions: in vivo
[16] = Clearance in Sprague-Dawley rat at 30 mg/kg, po administered as single dose upto 24 hrs by LC-MS analysis; assay type: ADME, organism-based; conditions: in vivo
[17] = Microsomal stability in human liver microsomes assessed as substrate remaining in presence of NADPH measured after 20 mins by LC-MS/MS analysis
Mus musculus [18] = test: Effect on C57BL/6 mouse model of LPS induced sepsis assessed as survival rate in 72 hrs at 5 mg/kg, ip (reference value: 28.6%); assay type: functional; conditions: C57BL/6, ip
Mus musculus [19] = test: Effect on C57BL/6 mouse model of LPS induced sepsis assessed as survival rate in 24 hrs at 5 mg/kg, ip (reference value: 71.4%); assay type: functional; conditions: C57BL/6, ip
[20] = Acute toxicity in ICR mouse assessed as body weight at 100 mg/kg, ip administered as single dose observed for 14 days; assay type: organism-based; conditions: in vivo, 336 h, time 14 day

| SMILES | pIC50 [1] | pIC50 [2] | also measured |
| --- | --- | --- | --- |
| CC(NC(=O)Nc1ccc(C(=O)NC2CCCCC2)cc1)C12CC3CC(CC(C3)C1)C2 (centres undefined) | 7.86 | 6.66 | – |
| O=C(Nc1ccc(C(=O)NC2CCCCC2)cc1)NC1C2CC3CC1CC(O)(C3)C2 (centres undefined) | 6.33 | 6.31 | – |
| CC12CC3CC(C)(C1)CC(NC(=O)Nc1ccc(C(=O)N4CCCCC4)cc1)(C3)C2 | – | – | Activity [3]: Toxic; residual activity [4]: 17.1%; residual activity [5]: 58.9%; Vd [6]: 7.83 L/kg; Vd [7]: 1097.8 L/kg; AUC [8]: 1.305 µM·h; Cmax [9]: 330 nM; Cmax [10]: 3640 nM; CLH [11]: 71.7 mL/min/kg; residual activity [12]: 12.4%; AUC(0-t) [13]: 1.83 µM·h; residual activity [14]: 43%; AUC(0-t) [15]: 1.3 µM·h; CLH [16]: 4496.5 mL/min/kg; residual activity [17]: 26.4% |
| CC12CC3CC(C)(C1)CC(NC(=O)CCC(=O)N1CCCCC1)(C3)C2 | 4.66 | 5.61 | – |
| O=C(Nc1ccc(C(=O)NC2CCCCC2)cc1)NC1C2CC3CC(C2)CC1C3 (centres undefined) | 9.40 | 8.85 | Activity [3]: Toxic |
| CC(C)CNC(=O)CCC(=O)NC12CC3CC(C)(CC(C)(C3)C1)C2 | 5.38 | 4.72 | – |
| O=C(Nc1ccc(C(=O)NC2CCCCC2)cc1)NC12CC3CC(CC(O)(C3)C1)C2 | 7.03 | 6.10 | – |
| O=C(Nc1ccc(C(=O)N2CCCCC2)cc1)NC12CC3CC(CC(O)(C3)C1)C2 | 7.05 | 6.92 | – |
| CC(C)CNC(=O)CCCC(=O)NC(C)C12CC3CC(CC(C3)C1)C2 (centres undefined) | 6.16 | 5.14 | – |
| CC12CC3CC(C)(C1)CC(NC(=O)c1ccc(C(=O)N4CCCCC4)cc1)(C3)C2 | 4.22 | 4.58 | – |
| C[C@@H]1C[C@H]2[C@@H]3CCC4=CC(=O)C=C[C@]4(C)[C@@]3(F)[C@@H](O)C[C@]2(C)[C@@]1(O)C(=O)CO [DEXAMETHASONE] | – | – | survival at 5 mg/kg (Mus musculus [18]): 100%; survival at 5 mg/kg (Mus musculus [19]): 100% |
| CC12CC3CC(C)(C1)CC(NC(=O)CCC(=O)NC1CCCCC1)(C3)C2 | 6.75 | 5.10 | – |
| CC(NC(=O)Nc1ccc(C(=O)N2CCCCC2)cc1)C12CC3CC(CC(C3)C1)C2 (centres undefined) | 8.62 | 8.41 | – |
| CC12CC3CC(C)(C1)CC(NC(=O)CCCC(=O)NC1CCCCC1)(C3)C2 | 8.08 | 5.80 | – |
| CC(C)CNC(=O)/C=C/C(=O)NC12CC3CC(C)(CC(C)(C3)C1)C2 | 4.68 | 5.02 | – |
| CC(C)CNC(=O)c1ccc(NC(=O)NC2C3CC4CC2CC(O)(C4)C3)cc1 (centres undefined) | 5.63 | 6.60 | – |
| CC(C)CNC(=O)c1ccc(C(=O)NC23CC4CC(C)(CC(C)(C4)C2)C3)cc1 | 5.18 | < 4.00 | – |

| SMILES | pIC50 [1] | pIC50 [2] | also measured |
| --- | --- | --- | --- |
| CC(C)CNC(=O)c1ccc(NC(=O)NC(C)C23CC4CC(CC(C4)C2)C3)cc1 (centres undefined) | 7.54 | 7.22 | – |
| CC12CC3CC(C)(C1)CC(NC(=O)Nc1ccc(C(=O)NC4CCCCC4)cc1)(C3)C2 | 9.40 | 8.64 | Activity [20]: Non-Toxic |
| CC(C)CNC(=O)c1ccc(NC(=O)NC2C3CC4CC(C3)CC2C4)cc1 (centres undefined) | 9.40 | 9.05 | Activity [20]: Non-Toxic; Activity [3]: Toxic |
| CC(C)CNC(=O)CCC(=O)NC(C)C12CC3CC(CC(C3)C1)C2 (centres undefined) | 7.36 | 7.29 | – |
| CC12CC3CC(C)(C1)CC(NC(=O)/C=C\C(=O)N1CCCCC1)(C3)C2 | 4.09 | 4.67 | – |
| CC(C)CNC(=O)c1ccc(NC(=O)NC23CC4CC(CC(O)(C4)C2)C3)cc1 | 6.54 | 6.02 | – |
| CC(=O)N1CCC(NC(=O)NC23CC4CC(CC(C4)C2)C3)CC1 [AR9281] | – | – | Activity [3]: Toxic |
| CC12CC3CC(C)(C1)CC(NC(=O)c1ccc(C(=O)NC4CCCCC4)cc1)(C3)C2 | 5.99 | 5.20 | – |
| CC(C)CNC(=O)c1ccc(NC(=O)NC23CC4CC(C)(CC(C)(C4)C2)C3)cc1 | 9.40 | 9.15 | Activity [20]: Non-Toxic |
| O=C(Nc1ccc(C(=O)N2CCCCC2)cc1)NC1C2CC3CC1CC(O)(C3)C2 (centres undefined) | 6.30 | 6.66 | – |
| CC12CC3CC(C)(C1)CC(NC(=O)/C=C/C(=O)NC1CCCCC1)(C3)C2 | 5.26 | 4.61 | – |
| CC(C)CNC(=O)CCCC(=O)NC12CC3CC(C)(CC(C)(C3)C1)C2 | 6.65 | 5.21 | – |
| CC(C)CNC(=O)CCCC(=O)NC1C2CC3CC1CC(O)(C3)C2 (centres undefined) | 6.97 | 7.38 | – |
| CC(C)CNC(=O)CCCC(=O)NC1C2CC3CC(C2)CC1C3 (centres undefined) | 5.64 | 5.45 | – |
| CC12CC3CC(C)(C1)CC(NC(=O)CCCC(=O)N1CCCCC1)(C3)C2 | 5.23 | 5.23 | – |
| O=C(Nc1ccc(C(=O)N2CCCCC2)cc1)NC1C2CC3CC(C2)CC1C3 (centres undefined) | 9.40 | 9.40 | Activity [20]: Non-Toxic |
